According to patent US20260165323A1, “USE OF STROBILURIN TYPE COMPOUNDS FOR COMBATING PHYTOPATHOGENIC FUNGI CONTAINING AN AMINO ACID SUBSTITUTION F129L IN THE MITOCHONDRIAL CYTOCHROME B PROTEIN CONFERRING RESISTANCE TO QO […]” (priority 2022, published 2026):

Tested on: Phakopsora pachyrhizi containing the amino acid substitution F129L in the mitochondrial cytochrome b protein
Test: Use Example 1: protective control of soybean rust on soybeans (PHAKPA P2)
Format: in vivo
Conditions: inoculated 2 days after spraying, 4 ppm, % diseased leaf area
Method: (§1) The compound was dissolved in a mixture of acetone and/or dimethylsulfoxide and the wetting agent/emulsifier Wettol, which is based on ethoxylated alkylphenoles, in a ratio (volume) solvent-emulsifier of 99 to 1 to give a total volume of 5 ml. Subsequently, water was added to total volume of 100 ml. This stock solution was then diluted with the described solvent-emulsifier-water mixture to the final concentration given in the tables below.
Use Example 1. Protective Control of Soybean Rust on Soybeans Caused by Phakopsora pachyrhizi (PHAKPA P2)
(§2) Leaves of potted soybean seedlings were sprayed to run-off with the previously described spray solution, containing the concentration of active ingredient or their mixture as described below. The plants were allowed to air-dry. The trial plants were cultivated for 2 days in a greenhouse chamber at 23-27° C. and a relative humidity between 60 and 80%. Then the plants were inoculated with spores of Phakopsora pachyrhizi. The strain used contains the amino acid substitution F129L in the mitochondrial cytochrome b protein conferring resistance to Qo inhibitors. To ensure the success the artificial inoculation, the plants were transferred to a humid chamber with a relative humidity of about 95% and 20 to 24° C. for 24 hr. The trial plants were cultivated for up to 14 days in a greenhouse chamber at 23 to 27° C. and a relative humidity between 60 and 80%. The extent of fungal attack on the leaves was visually assessed as % diseased leaf area, the disease level of untreated controls was usually higher than 85%.

Compound	% PHAKPA (F129L) Disease level P2 at 4 ppm [%]
CO/C=C(/C(=O)OC)c1cccc(Cl)c1CO/N=C(\COC)c1cc(Cl)ccc1F [compound 105]	18
COC/C(=N\OCc1c(Cl)cccc1/C(=N\OC)C(=O)OC)c1ccccc1F [compound 19]	33
CNC(=O)/C(=N/OC)c1cccc(Cl)c1CO/N=C(\COC)c1cccc(C)c1 [compound 127]	21
CO/C=C(/C(=O)OC)c1cccc(Cl)c1CO/N=C(\COC)c1c(F)cc(Cl)cc1F [compound 115]	8
CNC(=O)/C(=N/OC)c1cccc(Cl)c1CO/N=C(\COC)c1c(F)ccc(F)c1F [compound 112]	8
CNC(=O)/C(=N/OC)c1cccc(Cl)c1CO/N=C(\COC)c1ccccc1C [compound 122]	82
COC/C(=N\OCc1c(Cl)cccc1/C(=N\OC)C(=O)OC)c1c(F)cc(Cl)cc1F [compound 89]	53
CNC(=O)/C(=N/OC)c1cccc(Cl)c1CO/N=C(\COC)c1cccc(Cl)c1Cl [compound 75]	73

Same assay, conditions: inoculated 2 days after spraying, 16 ppm, % diseased leaf area

Compound	% PHAKPA (F129L) Disease level P2 at 16 ppm [%]
CO/C=C(/C(=O)OC)c1cccc(Cl)c1CO/N=C(\COC)c1cc(Cl)ccc1F [compound 105]	2
COC/C(=N\OCc1c(Cl)cccc1/C(=N\OC)C(=O)OC)c1ccccc1F [compound 19]	6
CNC(=O)/C(=N/OC)c1cccc(Cl)c1CO/N=C(\COC)c1cccc(C)c1 [compound 127]	0
CO/C=C(/C(=O)OC)c1cccc(Cl)c1CO/N=C(\COC)c1c(F)cc(Cl)cc1F [compound 115]	0
CNC(=O)/C(=N/OC)c1cccc(Cl)c1CO/N=C(\COC)c1c(F)ccc(F)c1F [compound 112]	0
CNC(=O)/C(=N/OC)c1cccc(Cl)c1CO/N=C(\COC)c1ccccc1C [compound 122]	20
COC/C(=N\OCc1c(Cl)cccc1/C(=N\OC)C(=O)OC)c1c(F)cc(Cl)cc1F [compound 89]	17
CNC(=O)/C(=N/OC)c1cccc(Cl)c1CO/N=C(\COC)c1cccc(Cl)c1Cl [compound 75]	24

Tested on: Phakopsora pachyrhizi containing the amino acid substitution F129L in the mitochondrial cytochrome b protein
Test: Use Example 2: protective control of soybean rust on soybeans (PHAKPA P6)
Format: in vivo
Conditions: inoculated six days after spraying, 4 ppm, % diseased leaf area
Method: as §1
Use Example 2. Protective Control of Soybean Rust on Soybeans Caused by Phakopsora Pachyrhizi (PHAKPA P6)
as §2, with “active ingredient as described” for “active ingredient or their mixture as described”, “cultivated for six days in” for “cultivated for 2 days in”, “95% and 23 to 27°” for “95% and 20 to 24°”, “23 to 27° C. for” for “20 to 24° C. for”

Compound	% PHAKPA (F129L) Disease level P6 at 4 ppm [%]
CO/C=C(/C(=O)OC)c1cccc(Cl)c1CO/N=C(\COC)c1cc(Cl)ccc1F [compound 105]	13
COC/C(=N\OCc1c(Cl)cccc1/C(=N\OC)C(=O)OC)c1ccccc1F [compound 19]	77
CNC(=O)/C(=N/OC)c1cccc(Cl)c1CO/N=C(\COC)c1cccc(C)c1 [compound 127]	18
CO/C=C(/C(=O)OC)c1cccc(Cl)c1CO/N=C(\COC)c1c(F)cc(Cl)cc1F [compound 115]	9
CNC(=O)/C(=N/OC)c1cccc(Cl)c1CO/N=C(\COC)c1c(F)ccc(F)c1F [compound 112]	21
CNC(=O)/C(=N/OC)c1cccc(Cl)c1CO/N=C(\COC)c1ccccc1C [compound 122]	76
COC/C(=N\OCc1c(Cl)cccc1/C(=N\OC)C(=O)OC)c1c(F)cc(Cl)cc1F [compound 89]	45
CNC(=O)/C(=N/OC)c1cccc(Cl)c1CO/N=C(\COC)c1cccc(Cl)c1Cl [compound 75]	25

Same assay, conditions: inoculated six days after spraying, 16 ppm, % diseased leaf area

Compound	% PHAKPA (F129L) Disease level P6 at 16 ppm [%]
CO/C=C(/C(=O)OC)c1cccc(Cl)c1CO/N=C(\COC)c1cc(Cl)ccc1F [compound 105]	0
COC/C(=N\OCc1c(Cl)cccc1/C(=N\OC)C(=O)OC)c1ccccc1F [compound 19]	31
CNC(=O)/C(=N/OC)c1cccc(Cl)c1CO/N=C(\COC)c1cccc(C)c1 [compound 127]	4
CO/C=C(/C(=O)OC)c1cccc(Cl)c1CO/N=C(\COC)c1c(F)cc(Cl)cc1F [compound 115]	1
CNC(=O)/C(=N/OC)c1cccc(Cl)c1CO/N=C(\COC)c1c(F)ccc(F)c1F [compound 112]	0
CNC(=O)/C(=N/OC)c1cccc(Cl)c1CO/N=C(\COC)c1ccccc1C [compound 122]	30
COC/C(=N\OCc1c(Cl)cccc1/C(=N\OC)C(=O)OC)c1c(F)cc(Cl)cc1F [compound 89]	13
CNC(=O)/C(=N/OC)c1cccc(Cl)c1CO/N=C(\COC)c1cccc(Cl)c1Cl [compound 75]	11

Tested on: Puccinia recondita
Test: Use Example 3: curative control of brown rust on wheat (PUCCRT K4)
Format: in vivo
Conditions: 4 ppm, % diseased leaf area
Method: as §1
Use Example 3. Curative Control of Brown Rust on Wheat Caused by Puccinia recondita (PUCCRT K4)
The first two developed leaves of potted wheat seedling were dusted with spores of Puccinia recondita. To ensure the success the artificial inoculation, the plants were transferred to a humid chamber without light and a relative humidity of 95 to 99% and 20 to 24° C. for 24 h. The next 3 days the plants were cultivated in a greenhouse chamber at 20 to 24° C. and a relative humidity between 65 and 70%. Then the plants were sprayed to run-off with previously described spray solution, containing the concentration of active ingredient or their mixture as described below. The plants were allowed to air-dry. Then the trial plants were cultivated for 5 to 7 days in a greenhouse chamber at 20 to 24° C. and a relative humidity between 65 and 70%. The extent of fungal attack on the leaves was visually assessed as % diseased leaf area, the disease level of untreated controls was usually between 80 and 100%.

Compound	% PUCCRT Disease level K4 at 4 ppm [%]
CO/C=C(/C(=O)OC)c1cccc(Cl)c1CO/N=C(\COC)c1cc(Cl)ccc1F [compound 105]	42
COC/C(=N\OCc1c(Cl)cccc1/C(=N\OC)C(=O)OC)c1ccccc1F [compound 19]	87
CNC(=O)/C(=N/OC)c1cccc(Cl)c1CO/N=C(\COC)c1cccc(C)c1 [compound 127]	58

Same assay, conditions: 16 ppm, % diseased leaf area

Compound	% PUCCRT Disease level K4 at 16 ppm [%]
CO/C=C(/C(=O)OC)c1cccc(Cl)c1CO/N=C(\COC)c1cc(Cl)ccc1F [compound 105]	5
COC/C(=N\OCc1c(Cl)cccc1/C(=N\OC)C(=O)OC)c1ccccc1F [compound 19]	80
CNC(=O)/C(=N/OC)c1cccc(Cl)c1CO/N=C(\COC)c1cccc(C)c1 [compound 127]	1

Tested on: Puccinia recondita
Test: Use Example 4: preventative control of brown rust on wheat (PUCCRT P7)
Format: in vivo
Conditions: inoculated seven days after spraying, 4 ppm, % diseased leaf area
Method: as §1
Use Example 4. Preventative Control of Brown Rust on Wheat Caused by Puccinia recondita (PUCCRT P7)
The first two developed leaves of potted wheat seedling were sprayed to run-off with previously described spray solution, containing the concentration of active ingredient or their mixture as described below. Seven days later the plants were dusted with spores of Puccinia recondita. To ensure the success of the artificial inoculation, the plants were transferred to a humid chamber without light and a relative humidity of 95 to 99% and 20 to 24° C. for 24 h. Then the trial plants were cultivated for 9 to 11 days in a greenhouse chamber at 20 to 24° C. and a relative humidity between 65 and 70%. The extent of fungal attack on the leaves was visually assessed as % diseased leaf area, the disease level of untreated controls was usually between 80 and 100%.

Compound	% PUCCRT Disease level P7 at 4 ppm [%]
CO/C=C(/C(=O)OC)c1cccc(Cl)c1CO/N=C(\COC)c1cc(Cl)ccc1F [compound 105]	44
COC/C(=N\OCc1c(Cl)cccc1/C(=N\OC)C(=O)OC)c1ccccc1F [compound 19]	53
CO/C=C(/C(=O)OC)c1cccc(Cl)c1CO/N=C(\COC)c1c(F)cc(Cl)cc1F [compound 115]	57
CNC(=O)/C(=N/OC)c1cccc(Cl)c1CO/N=C(\COC)c1c(F)ccc(F)c1F [compound 112]	43
CNC(=O)/C(=N/OC)c1cccc(Cl)c1CO/N=C(\COC)c1ccccc1C [compound 122]	45
COC/C(=N\OCc1c(Cl)cccc1/C(=N\OC)C(=O)OC)c1c(F)cc(Cl)cc1F [compound 89]	36
CNC(=O)/C(=N/OC)c1cccc(Cl)c1CO/N=C(\COC)c1cccc(Cl)c1Cl [compound 75]	67

Same assay, conditions: inoculated seven days after spraying, 16 ppm, % diseased leaf area

Compound	% PUCCRT Disease level P7 at 16 ppm [%]
CO/C=C(/C(=O)OC)c1cccc(Cl)c1CO/N=C(\COC)c1cc(Cl)ccc1F [compound 105]	4
COC/C(=N\OCc1c(Cl)cccc1/C(=N\OC)C(=O)OC)c1ccccc1F [compound 19]	15
CO/C=C(/C(=O)OC)c1cccc(Cl)c1CO/N=C(\COC)c1c(F)cc(Cl)cc1F [compound 115]	14
CNC(=O)/C(=N/OC)c1cccc(Cl)c1CO/N=C(\COC)c1c(F)ccc(F)c1F [compound 112]	6
CNC(=O)/C(=N/OC)c1cccc(Cl)c1CO/N=C(\COC)c1ccccc1C [compound 122]	20
COC/C(=N\OCc1c(Cl)cccc1/C(=N\OC)C(=O)OC)c1c(F)cc(Cl)cc1F [compound 89]	25
CNC(=O)/C(=N/OC)c1cccc(Cl)c1CO/N=C(\COC)c1cccc(Cl)c1Cl [compound 75]	33
